From US12139520B2 (priority 2020, dated 2024) come the findings set out here.

For one test, the target named is T1, hAMY3 receptor (Homo sapiens, UniProt O60896+P30988).
T1 sequence (P30988 25-474): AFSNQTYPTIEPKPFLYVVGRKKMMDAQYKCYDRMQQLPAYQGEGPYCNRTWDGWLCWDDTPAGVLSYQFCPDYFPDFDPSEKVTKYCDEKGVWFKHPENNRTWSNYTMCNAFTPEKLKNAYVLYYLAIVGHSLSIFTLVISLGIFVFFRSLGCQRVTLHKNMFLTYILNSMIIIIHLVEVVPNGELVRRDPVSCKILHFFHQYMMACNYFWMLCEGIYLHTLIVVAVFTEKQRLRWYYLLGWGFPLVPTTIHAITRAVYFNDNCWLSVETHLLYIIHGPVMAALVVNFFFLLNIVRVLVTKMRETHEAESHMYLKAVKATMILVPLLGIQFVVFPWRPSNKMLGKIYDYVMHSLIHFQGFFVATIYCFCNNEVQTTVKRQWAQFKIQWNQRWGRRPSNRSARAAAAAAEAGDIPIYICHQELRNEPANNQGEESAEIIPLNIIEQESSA
T1 sequence (O60896 24-148 partner): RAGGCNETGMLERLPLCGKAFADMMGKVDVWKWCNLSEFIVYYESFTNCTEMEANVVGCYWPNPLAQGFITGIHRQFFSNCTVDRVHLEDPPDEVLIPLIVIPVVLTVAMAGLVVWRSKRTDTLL
In words: cAMP assay for in vitro receptor activation, hAMY3-R. The format is cell-based. To be noted: cAMP assay, hAMY3 receptor; read-out: hAMY3R EC50. The gist of the method: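 Stable hAMY3 cells; DPBS + 0.05% casein + 0.5 mM IBMX; graded compound doses, 30 min, RT; cAMP via HTRF Gs kit, TR-FRET read at 1 h.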
(cAMP levels reflect the balance of adenylyl cyclase and phosphodiesterase activity.)

The next test concerns the target hAM1 receptor (Homo sapiens, UniProt O60895+Q16602). Briefly: cAMP assay for in vitro receptor activation, hAM1-R. The format is cell-based. The note with it: cAMP assay, hAM1 receptor; read-out: hAM1R EC50. The gist of the method:
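Monoclonal stable hAM1-overexpressing cells, thawed from frozen stock; 8000 cells/well in DPBS + 0.05% casein + 0.5 mM IBMX; read-out cAMP.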

Numbered stars: 1 amine (or outer) side, 2 acyl side, 3 side chain; on linkers, the order of the positions; unused ones are H or OH. Bridge positions count the residues as written; N and C are the ends. Square brackets hold non-standard residues; d marks the D form. Peptide text beside a SMILES is read from it. * marks the point of attachment. C20 diacid = O=C(O)CCCCCCCCCCCCCCCCCCC(=O)*; γGlu = O=C(O)[C@H](CCC(=O)[*:2])N[*:1]; Hyp = O=C(O)[C@@H]1C[C@@H](O)CN1; Cit = NC(=O)NCCC[C@H](N)C(=O)O Bounds are passed on as bounds.

hAM1 receptor, sequence (Q16602 23-461): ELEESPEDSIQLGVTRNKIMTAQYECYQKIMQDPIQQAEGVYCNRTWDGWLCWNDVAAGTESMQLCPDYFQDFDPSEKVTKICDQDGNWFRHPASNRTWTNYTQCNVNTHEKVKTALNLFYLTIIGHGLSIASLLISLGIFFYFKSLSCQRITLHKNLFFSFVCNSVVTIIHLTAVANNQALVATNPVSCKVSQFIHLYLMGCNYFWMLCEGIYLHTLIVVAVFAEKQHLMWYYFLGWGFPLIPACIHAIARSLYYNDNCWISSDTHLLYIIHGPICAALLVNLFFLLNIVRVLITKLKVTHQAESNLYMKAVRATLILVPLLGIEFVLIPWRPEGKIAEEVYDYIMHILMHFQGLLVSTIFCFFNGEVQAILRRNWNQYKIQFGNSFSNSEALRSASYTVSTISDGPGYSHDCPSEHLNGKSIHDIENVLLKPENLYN
hAM1 receptor, sequence (O60895 43-175 partner): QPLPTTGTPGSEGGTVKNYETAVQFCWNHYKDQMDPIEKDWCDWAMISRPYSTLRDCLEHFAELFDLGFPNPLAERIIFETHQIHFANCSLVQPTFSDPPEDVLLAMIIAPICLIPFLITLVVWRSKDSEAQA

For orientation: EC50 means the concentration giving half of the maximal effect. On to `CC[C@H](C)[C@H](NC(=O)[C@H](CCC(N)=O)NC(=O)[C@H](Cc1c[nH]cn1)NC(=O)[C@H](C)NC(=O)[C@H](CC(C)C)NC(=O)[C@H](CCCNC(=N)N)NC(=O)[C@H](CC(N)=O)NC(=O)[C@@H](NC(=O)[C@@H](NC(=O)[C@@H]1CSSC[C@H](NC(=O)[C@H](CCCCN)NC(=O)CC[C@H](NC(=O)CCCCCCCCCCCCCCCCCCC(=O)O)C(=O)O)C(=O)N[C@@H](CC(N)=O)C(=O)N[C@@H]([C@@H](C)O)C(=O)N[C@@H](C)C(=O)N[C@@H]([C@@H](C)O)C(=O)N1)[C@@H](C)O)C(C)C)C(=O)N[C@@H](Cc1ccc(O)cc1)C(=O)N[C@@H](CCC(N)=O)C(=O)N[C@@H](Cc1ccccc1)C(=O)N[C@H](C(=O)N[C@@H](CC(=O)O)C(=O)N[C@@H](CCCCN)C(=O)N[C@@H](CC(=O)O)C(=O)N[C@@H](CCCCN)C(=O)N[C@@H](CC(=O)O)C(=O)N[C@@H](CC(N)=O)C(=O)N[C@H](C(=O)N[C@@H](C)C(=O)N1CCC[C@H]1C(=O)N1CCC[C@H]1C(=O)N[C@H](C(=O)N[C@@H](CC(N)=O)C(=O)N[C@H](C(=O)NCC(=O)N[C@@H](CO)C(=O)N[C@@H](CC(N)=O)C(=O)NCC(=O)N1C[C@H](O)C[C@H]1C(N)=O)C(C)C)[C@@H](C)O)C(C)C)[C@@H](C)O` [compound 38] ({C20 diacid-γGlu}-KCNTATCTVNRLAHQIYQFTDKDKDNVAPPTNVGSNG[Hyp]-NH2; disulfide 2-7), for which the results for the EC50 at hAMY3 receptor and on hAM1 receptor were 0.01 nM and more than 5000 nM, respectively.

Turning to `CC[C@H](C)[C@H](NC(=O)[C@H](CCC(N)=O)NC(=O)[C@H](CCC(=O)O)NC(=O)[C@H](C)NC(=O)[C@H](CC(C)C)NC(=O)[C@H](CCCNC(N)=O)NC(=O)[C@H](CCC(N)=O)NC(=O)[C@@H](NC(=O)[C@@H](NC(=O)[C@@H]1CSSC[C@H](NC(=O)[C@H](CCCCN)NC(=O)CC[C@H](NC(=O)CCCCCCCCCCCCCCCCCCC(=O)O)C(=O)O)C(=O)N[C@@H](CC(N)=O)C(=O)N[C@@H]([C@@H](C)O)C(=O)N[C@@H](C)C(=O)N[C@@H]([C@@H](C)O)C(=O)N1)[C@@H](C)O)C(C)C)C(=O)N[C@@H](C)C(=O)N[C@@H](CCC(N)=O)C(=O)N[C@@H](Cc1ccccc1)C(=O)N[C@H](C(=O)N[C@@H](CC(=O)O)C(=O)N[C@@H](CCCCN)C(=O)N[C@@H](CC(=O)O)C(=O)N[C@@H](CCCCN)C(=O)N[C@@H](CC(=O)O)C(=O)N[C@@H](CC(N)=O)C(=O)N[C@H](C(=O)N[C@@H](C)C(=O)N1CCC[C@H]1C(=O)N1CCC[C@H]1C(=O)N[C@H](C(=O)N[C@@H](CC(N)=O)C(=O)N[C@H](C(=O)NCC(=O)N[C@@H](CO)C(=O)N[C@@H](CC(N)=O)C(=O)NCC(=O)N1C[C@H](O)C[C@H]1C(N)=O)C(C)C)[C@@H](C)O)C(C)C)[C@@H](C)O` [compound 153] ({C20 diacid-γGlu}-KCNTATCTVQ[Cit]LAEQIAQFTDKDKDNVAPPTNVGSNG[Hyp]-NH2; disulfide 2-7), the EC50 at hAMY3 receptor is 0.041 nM; on hAM1 receptor, more than 5000 nM.

For the compound `CC[C@H](C)[C@H](NC(=O)[C@H](CCC(N)=O)NC(=O)[C@H](CCC(=O)O)NC(=O)[C@H](C)NC(=O)[C@H](CC(C)C)NC(=O)[C@H](CCCNC(=N)N)NC(=O)[C@H](CCC(N)=O)NC(=O)[C@@H](NC(=O)[C@@H](NC(=O)[C@@H]1CSSC[C@H](NC(=O)[C@H](CCCCN)NC(=O)CC[C@H](NC(=O)CCCCCCCCCCCCCCCCCCC(=O)O)C(=O)O)C(=O)N[C@@H](CC(N)=O)C(=O)N[C@@H]([C@@H](C)O)C(=O)N[C@@H](C)C(=O)N[C@@H]([C@@H](C)O)C(=O)N1)[C@@H](C)O)C(C)C)C(=O)N[C@@H](Cc1ccc(O)cc1)C(=O)N[C@@H](CCC(N)=O)C(=O)N[C@@H](Cc1ccccc1)C(=O)N[C@H](C(=O)N[C@@H](CC(=O)O)C(=O)N[C@@H](CCCCN)C(=O)N[C@@H](CC(=O)O)C(=O)N[C@@H](CCCCN)C(=O)N[C@@H](CC(=O)O)C(=O)N[C@@H](CCC(N)=O)C(=O)N[C@H](C(=O)N[C@@H](C)C(=O)N1CCC[C@H]1C(=O)N1CCC[C@H]1C(=O)N[C@H](C(=O)N[C@@H](CC(N)=O)C(=O)N[C@H](C(=O)NCC(=O)N[C@@H](CO)C(=O)N[C@@H](CC(N)=O)C(=O)NCC(=O)N1C[C@H](O)C[C@H]1C(N)=O)C(C)C)[C@@H](C)O)C(C)C)[C@@H](C)O` [compound 100] ({C20 diacid-γGlu}-KCNTATCTVQRLAEQIYQFTDKDKDQVAPPTNVGSNG[Hyp]-NH2; disulfide 2-7), the figures for the EC50 on hAMY3 receptor and at hAM1 receptor were 0.017 nM and more than 5000 nM, respectively.

For `CC[C@H](C)[C@H](NC(=O)[C@H](CCC(N)=O)NC(=O)[C@H](Cc1c[nH]cn1)NC(=O)[C@H](C)NC(=O)[C@H](CC(C)C)NC(=O)[C@H](CCCNC(=N)N)NC(=O)[C@H](CCC(N)=O)NC(=O)[C@@H](NC(=O)[C@@H](NC(=O)[C@@H]1CSSC[C@H](NC(=O)[C@H](CCCCN)NC(=O)CC[C@H](NC(=O)CCCCCCCCCCCCCCCCCCC(=O)O)C(=O)O)C(=O)N[C@@H](CC(N)=O)C(=O)N[C@@H]([C@@H](C)O)C(=O)N[C@@H](C)C(=O)N[C@@H]([C@@H](C)O)C(=O)N1)[C@@H](C)O)C(C)C)C(=O)N[C@@H](CC(N)=O)C(=O)N[C@@H](CCC(N)=O)C(=O)N[C@@H](Cc1ccccc1)C(=O)N[C@H](C(=O)N[C@@H](CC(=O)O)C(=O)N[C@@H](CCCCN)C(=O)N[C@@H](CC(=O)O)C(=O)N[C@@H](CCCCN)C(=O)N[C@@H](CC(=O)O)C(=O)N[C@@H](CC(N)=O)C(=O)N[C@H](C(=O)N[C@@H](C)C(=O)N1CCC[C@H]1C(=O)N1CCC[C@H]1C(=O)N[C@H](C(=O)N[C@@H](CC(N)=O)C(=O)N[C@H](C(=O)NCC(=O)N[C@@H](CO)C(=O)N[C@@H](CC(N)=O)C(=O)NCC(=O)N1C[C@H](O)C[C@H]1C(N)=O)C(C)C)[C@@H](C)O)C(C)C)[C@@H](C)O` [compound 11] ({C20 diacid-γGlu}-KCNTATCTVQRLAHQINQFTDKDKDNVAPPTNVGSNG[Hyp]-NH2; disulfide 2-7), the EC50 on hAMY3 receptor was 0.007 nM; at hAM1 receptor it was more than 5000 nM.

With `CC[C@H](C)[C@H](NC(=O)[C@H](C)NC(=O)CNC(=O)[C@H](Cc1ccccc1)NC(=O)[C@H](CC(N)=O)NC(=O)[C@H](CC(N)=O)NC(=O)[C@H](CO)NC(=O)[C@H](CO)NC(=O)[C@H](Cc1c[nH]cn1)NC(=O)[C@@H](NC(=O)[C@H](CC(C)C)NC(=O)[C@H](Cc1ccccc1)NC(=O)[C@H](CC(N)=O)NC(=O)[C@H](C)NC(=O)[C@H](CC(C)C)NC(=O)[C@H](CCCNC(=N)N)NC(=O)[C@H](CCC(N)=O)NC(=O)[C@@H](NC(=O)[C@H](C)NC(=O)[C@@H]1CSSC[C@H](NC(=O)[C@@H](N)CCCCN)C(=O)N[C@@H](CC(N)=O)C(=O)N[C@@H]([C@@H](C)O)C(=O)N[C@@H](C)C(=O)N[C@@H]([C@@H](C)O)C(=O)N1)[C@@H](C)O)C(C)C)C(=O)N[C@@H](CC(C)C)C(=O)N[C@@H](CO)C(=O)N[C@@H](CO)C(=O)N[C@H](C(=O)N[C@@H](CCCCN)C(=O)N[C@H](C(=O)NCC(=O)N[C@@H](CO)C(=O)N[C@@H](CC(N)=O)C(=O)N[C@H](C(=O)N[C@@H](Cc1ccc(O)cc1)C(N)=O)[C@@H](C)O)C(C)C)[C@@H](C)O` [compound 58], the EC50 at hAMY3 receptor was 0.012 nM; at hAM1 receptor, more than 5000 nM.
